Results as given in patent publication US10046001B2, “Compositions and methods for reducing intraocular pressure” (UNIVERSITY OF MIAMI, priority 2013, dated 2018).

Tests used:
[1] = tested on: trabecular meshwork (TM) primary cells; experiment: mobility and cell shape changes of primary TM cells exposed to lipids (time-lapse imaging); assay type: cell-based, human; conditions: for mobility and cell shape changes for trabecular meshwork (TM) primary cells due to exposure to lipids: 10 pmoles of lipid; for dynamics of filopodia formation: exposure to lipids vs vehicle
Method: FIGS. 2A and 2B show representative images of the effect of lipid on trabecular meshwork primary cells. The time lapsed images of cell at indicated time interval. A. The control TM cells were subjected to vehicle (5% DMSO) in phosphate buffered saline. […] A protrusion of filopodia in a cell is indicated by thick arrow head. At 2 minutes after addition of vehicle to 16 minutes, the protrusion remains unchanged. B. TM cells treated with 10 pmoles of lipid. Most cells have protrusions with only a few cells without them. The filopodia in lipid treated cells are dynamic, they undergo dynamic retraction starting at 1 or 2 minutes after addition of lipid in the serum free media, indicated by arrows. At 16 minutes filopodia are largely retracted.
Modulation of cell motility and shape. Compared to controls (vehicle-10% DMSO only treated) shape of primary TM cells (FIG. 2A), exposure to lipids changed the shape of cells promoting filopodia and motility (FIG. 2B). All these lipids promote contraction of filopodia (FIG. 2B, arrows) and well as expansion. These images were derived from time lapsed video imaging of primary TM cells and summary data from several donor derived cells. The exposure to lipids render the cells more dynamic with respect to filopodia formation and their dynamic expansion-contraction (Summarized in Table 1 (FIG. 11)). The motility and filopodia formation is affected by a variety of intrinsic and extrinsic factors such as age of the donors from where cell have been derived, cell density, composition of the medium, environmental temperature and incubation gas composition. The age of the donor and cell density are the most prominent factors.
TM cell culture experiments: Primary human TM cells were cultured from cadaveric corneo-scleral sections. The cells were isolated through a blunt dissection of the area containing and adjacent to the canal of Schlemm, followed by a 2 hour digestion in DPBS (cat #21-030-CV, Mediatech Inc, Manassas, Va.) suspension of 20% 0.01 μg/μL collagenase-A (cat #LS004194, Worthington, Lakewood N.J.). The blunt dissection and the proteolytic treatment were performed inside a 12 well culture plate (cat #665-180 Greiner Bio-One, Neuburg, Germany). Culture media containing [DMEM 1× (cat #10-017-CM, Mediatech Inc), 10% heat inactivated FBS (cat #35-016-CV, Mediatech), 0.5% 1.7 mM L-Glutamine (cat #G6392, Sigma-Aldrich), 1% Antibiotic-Antimycotic Solution (cat #30-004-CL, Mediatech)] was added after 2 hours to terminate digestion. A sterile microscopy slide (cat #56700-194, VMR) was placed on top of the tissue fragment to ensure bottom-contact and immobility inside the media well. The sections were cultured at 37° C. in 5% CO2 inside a cell culture incubator. Culture was washed with 1× DPBS 7 days later to remove tissue debris; media change occurred every 3-4 days. Thus obtained cells were trypsin-treated (cat #25-050-C1, Mediatech) and accordingly distributed the day before the transfection complexes were created using the ratio of 0.4 μg/uL of respective vector DNA to the transfection agent (Lipofectamine 2000, cat #11668-019, Invitrogen), prepared accordingly to the manufacturer's instructions Following addition to respective wells, the transfection reactions were allowed to take place over a 2.5 hour span, after which they were terminated through the addition of cell culture media. Cell assays and immunohistochemical analysis were performed at or within a 24 hour time mark in order to observe and track the effects of vector expression on morphological changes. Time-lapse microscopy was performed using cells grown on glass bottom chamber slides (cat #154534, Lab-Tek, Thermo Fisher Scientific Inc., Rochester N.Y.) and Zeiss AxioVert 200M, for the duration of 20 hours, with a snapshot every 15 minutes, starting at 24 hours post-transfection. Immunohistochemical analysis was performed on cells fixed with 4% PFA (cat #19943, USB Corp, Cleveland, Ohio) at time intervals of 0, 24, and 29 hours post-transfection. […]

[2] = tested on: assembled layers of primary TM cells; experiment: fluorescein transport across assembled layers of primary TM cells in Using type chamber; assay type: cell-based, human; conditions: 10 pmole lipid, transport at 15 seconds
Excerpt: A pentalayer of cells were casted on a PVDF filter of 0.45 μm pore size with second to fourth layer topped with rat collagen. Control (without lipid treatment) or with 10 pmole of indicated lipid treated cells were used for these measurements. The transport of flourescein at 15 seconds from the opposite end after introduction of sample at one was estimated. Mean and standard deviation from three independent experiments have been presented. The relative transport has been divided into two zones (marked in yellow), that when the transport is above 0.48 but less than 0.62=1; and above 0.62=2 as indicated.
The transport of fluorescein across cell assembled layered TM cells was determined in an Using type chamber (FIG. 4). The five layers of primary TM cells with collagen matrix in between layers after the first layer were laid on a sterile PVDF membrane (0.45 μm pores). The fluorescein was introduced from one side of the port (the cellular side) and was sampled from another side (the membrane side) within 15 seconds of introduction. Differences in transport between the cell only control and cell treated with lipids for 1-3 hours prior to forming multi-layers (FIG. 4) was observed. The fluorescein transport was quantized and divided into two categories (marked with yellow zones) as 1 and 2 (FIG. 4).
Using type chamber experiments: An Using type chamber (cat #USS1L, World Precision Instrument, Inc.) was used to measure fluorescein flow (sodium fluorescein dye) across the PVDF membrane (cat #75696E Pall Life Sciences, Pensacola Fla.). Trabecular meshwork cells were cultured as described above on the PVDF membrane. Before plating the cells a layer of collagen matrix (Rat Tail Collagen, cat #BD 354249) was formed on the membrane to facilitate the adherence of TM cells to the membrane. The cells were allowed to form a confluent monolayer over a period of 16-24 hours and then another layer of cells was plated on this monolayer. This process was repeated to ultimately achieve a confluent tri-layer of cells. The cells were transfected with DNA of interest [TREK-1+cochlin, TREK-1 and RPE65, TREK-1, transfection agent (Lipofectamine 2000) (Invitrogen)] or left untransfected. 24-36 hours post transfection the membranes were placed between the hemi-chambers of the apparatus connected to a peristaltic pump creating flow across the membrane bathing in 1× DPBS. To measure the flow across the membrane, sodium flourescein dye was used (1:100 dilution of 1 mg/ml). The dye was introduced in one hemi-chamber and equal amounts (100 μl) were aspirated from the other hemi-chamber at 5 minutes post-injection. The fluorescein intensity was measured using the spectrophotometer.

Compound | mobility and cell shape changes for trabecular meshwork (TM) primary cells due to exposure to lipids [1] | transport of fluorescein in assembled layers of primary TM cells [2] | dynamics of filopodia formation [1]
CCCCCCCCCCCCCC[C@@H](O)[C@@H](N)COP(=O)(O)O [C17 Sphinganine-1-phosphate] | showed an effect | showed an effect | 
CCCCCCCC/C=C\CCCCCCCC(=O)N[C@@H](CO)[C@H](O)CCCCCCCCCCCCCCC [Cer(d18:0/18:1(9Z))] | showed an effect | showed an effect | 
CCCCCCCC/C=C\CCCCCCCCCCCCCCCC(=O)N[C@@H](CO)[C@H](O)/C=C/CCCCCCCCCCCCC [Cer(d18:1/26:1(17Z))] | showed an effect | showed an effect | 
CCCC/C=C\CCCCCCCC(=O)O[C@H](COC(=O)CCCCCCCCCCC)COP(=O)([O-])OCC[N+](C)(C)C [PC(12:0/14:1(9Z))] | lack of any effect | lack of any effect | exception
CCCCCCCCCCCCC(=O)OC[C@H](COP(=O)([O-])OCC[N+](C)(C)C)OC(=O)CCCCCCCCCCCC [PC(13:0/13:0), 1,2-ditridecanoyl-sn-glycero-3-phosphocholine, reference compound] | lack of any effect | lack of any effect | exception
CCCCCCCCCCCCCCCCCC(=O)OC[C@H](COP(=O)(O)OCCN)OC(=O)CCCCCCCCCCCCCCCCC [PE(18:0/18:0)] | showed an effect | showed an effect | 
CCCC/C=C\C/C=C\CCCCCCCC(=O)O[C@H](COC(=O)CCCCCCCCCCC)COP(=O)(O)OC1C(O)C(O)C(O)[C@@H](O)C1O (some centres unmarked) [PI(12:0/17:2)9Z,12Z))] | showed an effect | showed an effect | 
CCCCC/C=C\C/C=C\C/C=C\C/C=C\CCCC(=O)O[C@H](COC(=O)CCCCCCCCCCCCCCCCC)COP(=O)(O)OC1[C@H](O)[C@H](O)C(O)[C@H](O)[C@H]1O (some centres unmarked) [PI(18:0/20:4)5Z,8Z,11Z,14Z))] | showed an effect | showed an effect | 
CCCCCCCCCCCCCC(=O)OC[C@@H](O)COP(=O)(O)OC[C@H](N)C(=O)O [PS(14:0/0:0)] | showed an effect | showed an effect | 
CCCCCCCCCCCCCCCCCC(=O)OC[C@@H](O)COP(=O)(O)OC[C@H](N)C(=O)O [PS(18:0/0:0)] | showed an effect | showed an effect | 
CCCCCCCCCCC/C=C/[C@@H](O)[C@H](COP(=O)([O-])OCC[N+](C)(C)C)NC(=O)CCCCCCCCCCCCCCCCCCCCCCCC [SM(d16:1/25:0)] | showed an effect | showed an effect | 
CCCCCCCCCCCCCCC[C@@H](O)[C@@H](N)CO [Sphinganine] | showed an effect | showed an effect | 
